From patent US10781208B2, “5,6-dihydro-11H-indolo[2,3-B]quinolin-11-ones as alk inhibitors” (THE REGENTS OF THE UNIVERSITY OF MICHIGAN, priority 2016, dated 2020)

Key:
Kappas-299 (NPM-ALK) = test: Cell growth inhibition assay (WST-8), Kappas-299; format: cell-based; details: read-out: Kappas-299 (nM) (NPM-ALK), 50% of cell growth inhibition (IC50), Kappas-299 cells, WST-8, versus DMSO control
Experimental: (§1) All cell lines were cultured as recommended. For cell growth inhibition assay, cells were treated with different concentrations of the tested compounds, diluted from stock to culture media containing a 0.2% DMSO as the final concentration. Cell viability was determined using the WST-8 cell proliferation assay kit (Dojindo Molecular Technologies) according to manufacture's instructions. Three independent experiments in triplicates were performed.

H3122 (EML4-ALK) = test: Cell growth inhibition assay (WST-8), H3122; format: cell-based; details: Homo sapiens, NCI-H3122, read-out: H3122 (nM) (EML4-ALK), 50% of cell growth inhibition (IC50); H3122 cells, WST-8, versus DMSO control
Experimental: as §1

wild-type human ALK = biological target: T1, wild-type human ALK (Homo sapiens, UniProt Q9UM73); test: ALK kinase activity, Lance TR-FRET assay (wild-type); format: biochemical; details: Table 2, ALK enzyme; read-out: Inhibitory activity (nM) ALK
T1 construct: The cytoplasmic domain (amino acid 1058-1620) of wild-type human ALK protein; GST (N); purchased Carna Biosciences, Inc (Japan)
Experimental: Mutated ALK proteins were expressed in SF9 insect cells with N-terminal tags cleaved after purification. Kinase activities of all enzymes were assessed using a Lance TR-FRET assay kit from Perkin Elmer Life Sciences (Waltham, Mass.). 2.5 μL of compound solution and 5 μL of protein solution were added into a black low volume 384 well microtiter plate which was incubated for 30 minutes with gentle shaking at room temperature, followed by adding 2.5 μL of fluorescently labeled peptide substrate and ATP mixture solution. The kinase reaction was performed in 50 mM HEPES (pH 7.5) with 1 mM EGTA, 1 mM MgCl2, and 2 mM DTT, 0.01% Tween-20 added right before the assay. […] The final mixture was incubated in the dark for 1 hour before the plate was read on a Tecan Infinite M-1000 multi-mode plate reader (Tecan, Durham N.C.) with an excitation wavelength of 320 nm.

KARPAS 299 xenograft = KARPAS 299 xenograft model in mice, in vivo antitumor efficacy; details: SCID mice, given orally, once daily for 3 weeks, FIG. 1
Experimental: Tumor cells for xenografts were washed twice in PBS, and re-suspended in an ice cold mixture of 1:1 PBS and Matrigel (BD Biosciences, Invitrogen Corp.) for a final Matrigel protein concentration of 5 mg/ml. Cells at 5×10^6 cells in 0.1 ml were injected subcutaneously (s.c.) into the flank region of each mouse.
The size of tumors growing in the mice was measured in two dimensions using calipers. Tumor volume (mm^3)=(A×B^2)/2 where A and B are the tumor length and width (in mm), respectively. During treatment, tumor volume and body weight were measured three times a week. After the treatment was stopped, tumor volume and body weight was measured at least once a week.
Tumors were not allowed to exceed 10% of the animal's total body weight. If an animal had two or more tumors the total weight of all tumors were not allowed to exceed 10% of the animal's total body weight. At the end of the experimental period or when tumor size approached 10% of the total body weight, the animal was euthanized.
Mice with tumors within acceptable size range were randomized into treatment groups of 7 mice. Drug was given orally, once daily for 3 weeks. The Control group received vehicle alone.

T1 sequence (Q9UM73 1058-1620): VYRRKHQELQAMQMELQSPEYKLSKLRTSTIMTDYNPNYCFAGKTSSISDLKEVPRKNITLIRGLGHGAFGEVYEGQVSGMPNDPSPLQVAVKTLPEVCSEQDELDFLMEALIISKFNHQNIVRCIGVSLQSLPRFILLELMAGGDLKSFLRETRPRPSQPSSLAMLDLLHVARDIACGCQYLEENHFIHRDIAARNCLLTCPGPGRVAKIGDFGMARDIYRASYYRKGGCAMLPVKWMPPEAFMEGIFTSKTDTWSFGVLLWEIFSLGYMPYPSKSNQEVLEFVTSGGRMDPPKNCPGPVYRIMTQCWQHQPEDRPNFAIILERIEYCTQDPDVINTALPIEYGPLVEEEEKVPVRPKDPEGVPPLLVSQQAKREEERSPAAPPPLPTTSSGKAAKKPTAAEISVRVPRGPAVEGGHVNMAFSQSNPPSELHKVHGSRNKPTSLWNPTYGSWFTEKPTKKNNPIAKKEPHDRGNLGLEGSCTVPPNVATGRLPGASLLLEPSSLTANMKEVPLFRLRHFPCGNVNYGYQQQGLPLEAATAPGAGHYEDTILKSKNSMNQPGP

| SMILES | IC50 (Kappas-299 (NPM-ALK)) | IC50 (H3122 (EML4-ALK)) | IC50 (wild-type human ALK) | tumor growth in the KARPAS 299 xenograft model (KARPAS 299 xenograft) |
| --- | --- | --- | --- | --- |
| CCN1[C@H](C)CN(c2c(OC)cc3c(=O)c4c5ccc(C#N)cc5[nH]c4n(C(C)C)c3c2F)C[C@@H]1C [Cpd. No. 9, 3-((3R,5S)-4-ethyl-3,5-dimethylpiperazin-1-yl)-4-fluoro-5-isopropyl-2-methoxy-11-oxo-6,11-dihydro-5H-indolo[2,3-b]quinoline-8-carbonitrile] | 85 nM | 27 nM |  |  |
| COc1cc2c(=O)c3c4ccc(C#N)cc4[nH]c3n(C(C)C)c2c(F)c1C1CC2CCC(C1)N2C (stereo not shown) [Cpd. No. 10, 4-fluoro-5-isopropyl-2-methoxy-3-(8-methyl-8-azabicyclo[3.2.1]octan-3-yl)-11-oxo-6,11-dihydro-5H-indolo[2,3-b]quinoline-8-carbonitrile] | 69 nM |  | 0.37 nM |  |
| COc1cc2c(=O)c3c4ccc(C#N)cc4[nH]c3n(C(C)C)c2c(F)c1C1=CC(C)(C)N(C)C(C)(C)C1 [Cpd. No. 12, 4-fluoro-5-isopropyl-2-methoxy-11-oxo-3-(1,2,2,6,6-pentamethyl-1,2,3,6-tetrahydropyridin-4-yl)-6,11-dihydro-5H-indolo[2,3-b]quinoline-8-carbonitrile] | 9.7 nM |  | 0.24 nM | inhibit tumor growth |
| COc1cc2c(=O)c3c4ccc(C#N)cc4[nH]c3n(C(C)C)c2c(F)c1C1=CCNCC1 [Cpd. No. 16, 4-fluoro-5-isopropyl-2-methoxy-11-oxo-3-(1,2,3,6-tetrahydropyridin-4-yl)-6,11-dihydro-5H-indolo[2,3-b]quinoline-8-carbonitrile] | 167 nM |  | 0.85 nM |  |
| COc1cc2c(=O)c3c4ccc(C#N)cc4[nH]c3n(C(C)C)c2c(F)c1C1=CCN(C)CC1 [Cpd. No. 17, 4-fluoro-5-isopropyl-2-methoxy-3-(1-methyl-1,2,3,6-tetrahydropyridin-4-yl)-11-oxo-6,11-dihydro-5H-indolo[2,3-b]quinoline-8-carbonitrile] | 60 nM |  | 0.75 nM |  |
| COc1cc2c(=O)c3c4ccc(C#N)cc4[nH]c3n(C(C)C)c2c(F)c1C1=C[C@@H](C)N[C@@H](C)C1 [Cpd. No. 18, 3-((2S,6R)-2,6-dimethyl-1,2,3,6-tetrahydropyridin-4-yl)-4-fluoro-5-isopropyl-2-methoxy-11-oxo-6,11-dihydro-5H-indolo[2,3-b]quinoline-8-carbonitrile] | 16 nM | 18 nM | 0.5 nM |  |
| COc1cc2c(=O)c3c4ccc(C#N)cc4[nH]c3n(C(C)C)c2c(F)c1C1=C[C@@H](C)N(C)[C@@H](C)C1 [Cpd. No. 19, 4-fluoro-5-isopropyl-2-methoxy-11-oxo-3-((2S,6R)-1,2,6-trimethyl-1,2,3,6-tetrahydropyridin-4-yl)-6,11-dihydro-5H-indolo[2,3-b]quinoline-8-carbonitrile] | 16 nM | 20 nM | 0.36 nM | inhibit tumor growth |
| COc1cc2c(=O)c3c4ccc(C#N)cc4[nH]c3n(C(C)C)c2c(F)c1C1=CCN(C2CCOCC2)CC1 [Cpd. No. 20, 4-fluoro-5-isopropyl-2-methoxy-11-oxo-3-(1-(tetrahydro-2H-pyran-4-yl)-1,2,3,6-tetrahydropyridin-4-yl)-6,11-dihydro-5H-indolo[2,3-b]quinoline-8-carbonitrile] | 38 nM | 30 nM | 1.4 nM | inhibit tumor growth |
